From EP0318620A1, “Herbicidal sulfonamides” (E.I. DU PONT DE NEMOURS AND COMPANY, priority 1987, dated 1989)

Legend:
Assay in all cases: Test B pan test in Sassafras sandy loam soil, pre- and postemergence
Conditions in all cases: scale 0 to 100
teaweed = format: in vivo, Sida spinosa
Description: (§1) Three round pans (25 cm diameter by 12.5 cm deep) were filled with Sassafras sandy loam soil. One pan was planted with nutsedge (Cyperus rotundus) tubers, crabgrass (Digitaria sanguinalis), sicklepod (Cassia obtusifolia), jimsonweed (Datura stramonium), velvetleaf (Abutilon theophrasti), lambsquarters (Chenopodim album), rice (Oryza sativa) and teaweed (Sida spinosa). The second pot was planted with green foxtail (Setaria viridis), cocklebur (Xantium pensyivanicum), morningglory (lpomoea hederacea), cotton (Gossypium hirsutum), johnsongrass (Sorghum halepense), barnyardgrass (Echinochloa crusgalli), corn (Zea mays), soybean (Glycine max) and giant foxtail (Setaria faberi). The third pot was planted with wheat (Triticum aestivum), barley (Hordeum vulgare), wild buckwheat (Polgonum convolvulus L.), cheatgrass (Bromus secalinus L.), sugarbeet (Beta vulgaris), wild oats (Avena fatua), viola (Viola arvensis), blackgrass (Alopecurus myosuroides), and rape (Brassica napus). The plants were grown for approximately fourteen days, then sprayed postemergence with the chemicals dissolved in a non-phytotoxic solvent.
(§2) Three round pans (25 cm diameter by 12.5 cm deep) were filled with Sassafras sandy loam soil. One pan was planted with nutsedge tubers, crabgrass, sicklepod, jimsonweed, velvetleaf, lambsquarters, rice and teaweed. The second pot was planted with green foxtail, cocklebur, morningglory, cottom, johnsongrass, . barnyardgrass, corn, soybean and giant foxtail. The third pot was planted with wheat, barley, wild buckwheat, cheatgrass, sugarbeet, wild oat, viola, blackgrass and rape. The three pans were sprayed preemer gence with the chemicals dissolved in a non-phytotoxic solvent.
(§3) Treated plants and controls were maintained in the greenhouse for 24 days, then all rated plants were compared to controls and visually rated for plant response.
(§4) A dash (-) response means no test.

sugarbeet = format: in vivo, Beta vulgaris
Description: as §1, §2, §3, §4

wild oats = format: in vivo, Avena fatua
Description: as §1, §2, §3, §4

## CCOC(=O)c1c(CC#N)cccc1S(=O)(=O)NC(=O)Nc1nc(OC)cc(OC)n1 [Compound 3, 2-(cyanomethyl)-6 [[(4,6-dimethoxypyrimidin-2-yl)-aminocarbonyl]aminosulfonyl]benzoic acid, ethyl ester]
teaweed; POSTEMERGENCE, RATE 0001 G/HA
  TEAWEED response rating: 30
teaweed; POSTEMERGENCE, RATE 0004 G/HA
  TEAWEED response rating: 50
teaweed; POSTEMERGENCE, RATE 0016 G/HA
  TEAWEED response rating: 70
teaweed; POSTEMERGENCE, RATE 0062 G/HA
  TEAWEED response rating: 100
teaweed; PREEMERGENCE, RATE 0004 G/HA
  TEAWEED response rating: 0
teaweed; PREEMERGENCE, RATE 0016 G/HA
  TEAWEED response rating: 0
teaweed; PREEMERGENCE, RATE 0062 G/HA
  TEAWEED response rating: 0
sugarbeet; POSTEMERGENCE, RATE 0001 G/HA
  SUGAR BEETS response rating: 70
sugarbeet; POSTEMERGENCE, RATE 0004 G/HA
  SUGAR BEETS response rating: 100
sugarbeet; POSTEMERGENCE, RATE 0016 G/HA
  SUGAR BEETS response rating: 100
sugarbeet; POSTEMERGENCE, RATE 0062 G/HA
  SUGAR BEETS response rating: 100
sugarbeet; PREEMERGENCE, RATE 0004 G/HA
  SUGAR BEETS response rating: 50
sugarbeet; PREEMERGENCE, RATE 0016 G/HA
  SUGAR BEETS response rating: 70
sugarbeet; PREEMERGENCE, RATE 0062 G/HA
  SUGAR BEETS response rating: 90
Wild oats; POSTEMERGENCE, RATE 0001 G/HA
  WILD OATS response rating: 0
Wild oats; POSTEMERGENCE, RATE 0004 G/HA
  WILD OATS response rating: 30
Wild oats; POSTEMERGENCE, RATE 0016 G/HA
  WILD OATS response rating: 50
Wild oats; POSTEMERGENCE, RATE 0062 G/HA
  WILD OATS response rating: 80
Wild oats; PREEMERGENCE, RATE 0004 G/HA
  WILD OATS response rating: 20
Wild oats; PREEMERGENCE, RATE 0016 G/HA
  WILD OATS response rating: 40
Wild oats; PREEMERGENCE, RATE 0062 G/HA
  WILD OATS response rating: 60
